Earlier results as cited in patent EP1432446B1, “METHODS FOR THE IDENTIFICATION OF POLYPEPTIDE ANTIGENS ASSOCIATED WITH DISORDERS INVOLVING ABERRANT CELL PROLIFERATION” (Genentech, Inc., priority 2001, dated 2003).

Compound: COc1cc2cc(c1Cl)N(C)C(=O)C[C@H](OC(=O)[C@H](C)N(C)C(C)=O)[C@]1(C)O[C@H]1[C@H](C)[C@@H]1C[C@@](O)(NC(=O)O1)[C@H](OC)/C=C/C=C(\C)C2 [maytansine, Maytansine]
- adverse effects in clinical trials (clinical trials discontinued): serious adverse effects on the central nervous system and gastrointestinal system
- associated toxicity (in vivo): peripheral neuropathy
